Laboratory results: patent US7192905B1, “Organophosphate insecticide synergists for fly and tick control” (priority 2003, dated 2007)

Assays:
[1] = test system: horn fly (Kerrville strain, susceptible reference strain); test: Horn fly adult treated filter paper bioassay, Kerrville strain (Example 1); type: in vivo, Haematobia irritans irritans; conditions: mortality after 2 hours; for effect on toxicity of chlorpyrifos: combined with chlorpyrifos 8.0 μg/cm^2; for effect on toxicity of coumaphos: combined with coumaphos 10 μg/cm^2; for effect on toxicity of pirimiphos-methyl: combined with pirimiphos-methyl 3.0 μg/cm^2
Description: (§1) The horn fly strain used in this trial (referred to as the Kerrville strain) is an in vitro strain being maintained on citrated bovine blood, and serves as a susceptible reference strain. Adult flies were exposed to organophosphate pesticide alone or in combination with varying ratios of atrazine or propazine (shown in FIGS. 1–8). Concentrations of diazinon, pirimiphos-methyl, chlorpyrifos and coumaphos were 2.8, 3.0, 8.0, and 10 μg/cm^2, respectively (measured as the amount of pesticide applied per unit area of filter paper). Compounds were dissolved in acetone and applied onto filter paper, which was then placed into petri dishes with the adult flies and held at room temperature under normal lighting conditions. Flies were examined for mortality after 2 hours.

[2] = test system: horn fly (Oklahoma strain, challenged with diazinon); test: Horn fly adult treated filter paper bioassay, Oklahoma strain (Example 2); type: in vivo, Haematobia irritans irritans; conditions: for effect on coumaphos toxicity / effect on diazinon toxicity / effect on pirimiphos-methyl toxicity: triazine applied as 1% w/v solution, mortality after 2 hours; for effect on toxicity of chlorpyrifos: very high chlorpyrifos levels (140.2 μg/cm^2 and above), triazine 1% w/v
Description: as §1, with “Concentrations of diazinon, pirimiphos-methyl, chlorpyrifos and coumaphos were 2.8, 3.0, 8.0, and 10 μg/cm^2, respectively (measured as the amount of pesticide applied per unit area of filter paper).” left out
The bioassays of Example 1 were repeated using an in vivo strain (referred to as the Oklahoma strain) maintained on steers. This horn fly strain was established using eggs from flies collected from cattle at an Oklahoma State University research ranch. The strain is maintained in vivo on steers at the USDA-ARS-KBUSLIRL, and has been challenged with diazinon. Conditions for the bioassay were the same as Example 1 except for the addition of the organophosphate fenthion, and the triazine synergists were applied as a 1% w/v solution.

[3] = test system: San Roman strain of the southern cattle tick, larvae; test: FAO larval packet test, San Roman strain (Example 3)
Description: The strain used in these bioassays was the San Roman strain of the southern cattle tick (Boophilus microplus). […] The FAO larval packet test (LPT) was used to measure the susceptibility of tick larvae to acaricides. Dilutions of acaricide were prepared, dissolving the acaricide in trichloroethylene, then mixed with olive oil (ratio=2:1). A volume of 0.7 ml of the dilution was applied uniformly onto a piece of filter paper, and allowed to dry for 2 hr (trichloroethylene evaporates). The treated filter papers were folded into “packets” using bulldog clips, and approximately 100 larvae were added into each of “pockets”, which were then kept in a incubator (27° C., 90% RH) for 24 h before reading (# of dead and alive were counted under a magnifying glass).
In a first trial, tick larvae were exposed to 1% atrazine alone or in combination with 0.3, 0.6, or 1.2% w/v coumaphos.
In a second trial, tick larvae were exposed to varying concentrations of atrazine with either 0.3% coumaphos, 0.1 or 0.05% diazinon, or 0.01% coumaphos.

[4] = test system: San Felipe strain of the southern cattle tick, larvae; test: FAO larval packet test, San Felipe strain (Example 4); type: in vivo, Boophilus microplus
Description: The bioassays were conducted using the same process as described in Example 3, using the San Felipe strain of the southern cattle tick.

[5] = test system: Munoz strain of the southern cattle tick, larvae; test: FAO larval packet test, Munoz strain (Example 7)
brown dog tick larvae = test: FAO larval packet test, brown dog tick (Example 8); conditions: for effect on larvae: coumaphos alone
[6] = test system: Pesqueria strain of the southern cattle tick, larvae; test: FAO larval packet test, Pesqueria strain (Example 6); conditions: for mortality: 0.1% coumaphos alone; for resistance of the strain: Pesqueria strain
[7] = test system: Santa Luiza strain of the southern cattle tick, larvae; test: FAO larval packet test, Santa Luiza strain (Example 5); conditions: for resistance of the strain: Santa Luiza strain

For `CCNc1nc(Cl)nc(NC(C)C)n1` [atrazine], the “effect on toxicity of chlorpyrifos” value [1] was “neither atrazine nor propazine had any effect”, the “effect on toxicity of coumaphos” value [1] was “reduced the toxicity” and the “effect on diazinon activity (fly mortality)” value ([1]; combined with diazinon 2.8 μg/cm^2, even at low ratio 0.25/1) was “significant synergistic effect”. For the same molecule, the “effect on toxicity of pirimiphos-methyl” value [1] was “synergized”, the “effect on coumaphos toxicity” value [2] was “substantially as described in Example 1” and the “effect on diazinon toxicity” value [2] was “substantially as described in Example 1”. For the same molecule, the “effect on pirimiphos-methyl toxicity” value [2] was “substantially as described in Example 1”, the “effect on toxicity of chlorpyrifos” value [2] was “did synergize” and the synergism with diazinon ([3]; 0.1 or 0.05% diazinon, weaker than with coumaphos) was “Synergism was also observed”. The “effect on coumaphos toxicity” value ([3]; 1% atrazine with 0.3, 0.6 or 1.2% w/v coumaphos, first trial, 24 h) was “dramatically increased”, the mortality ([3]; atrazine with 0.3% coumaphos, atrazine/coumaphos ratio 2/1, 24 h) was 100% and the “effect on chlorpyrifos toxicity” value ([3]; high atrazine/chlorpyrifos ratios (8/1 and above)) was “synergized”. The “effect on toxicity of 0.3% coumaphos” value ([3]; varying atrazine concentrations, even at atrazine/coumaphos ratio 0.25/1, second trial) was “strongly synergized”, the “toxicity of atrazine alone” value ([4]; all concentrations except 0.8%) was “virtually non-toxic” and the mortality ([4]; atrazine alone at 0.8%) was 5.2%. The synergism with coumaphos ([4]; combined with 0.1% coumaphos, even at lowest atrazine/coumaphos ratio 0.125/1) was “significant synergism”, the “effect on toxicity of chlorpyrifos” value ([5]; 0.01% chlorpyrifos) was “significantly enhanced” and the synergism with coumaphos ([5]; 0.01% coumaphos) was “varying levels of synergism”. The synergism with diazinon ([5]; higher diazinon concentration 0.05% (data not shown)) was “synergistic effect of atrazine was observed even at low atrazine/diazinon ratios”, the synergism with diazinon ([5]; very low diazinon 0.005%, ratio 32/1) was “only provided a synergistic effect at high atrazine/diazinon ratios” and the mortality (brown dog tick larvae; atrazine alone 0.8%) was 25.7%. For the same molecule, the mortality (brown dog tick larvae; atrazine alone 1.0%) was 18.9%, the mortality (brown dog tick larvae; atrazine alone at or below 0.4%) was “less than 4%” and the “effect on coumaphos toxicity” value ([6]; 0.1% coumaphos, atrazine/coumaphos ratio 2/1 and above, both trials) was “significantly enhanced”. The “effect on toxicity of diazinon” value ([6]; 0.25% diazinon) was “significantly enhanced”, the synergism with coumaphos ([7]; 0.05% coumaphos, atrazine/coumaphos ratios of 2/1 and above) was “Significant synergism” and the synergism with diazinon ([7]; diazinon 0.025%, similar ratios, to a lesser extent than coumaphos) was “Synergism was also observed”.

For `Cc1ccc(/N=C/N(C)/C=N/c2ccc(C)cc2C)c(C)c1` [amitraz], the “resistance of the strain” value [7] was 70 fold.

`CCOP(=S)(OCC)Oc1ccc2c(C)c(Cl)c(=O)oc2c1` [coumaphos] was tested, and the “effect on larvae (mortality)” value ([3]; 0.3% coumaphos alone, 24 h) was “virtually no effect”, the “resistance of the strain to the acaricide” value ([3]; compared with all strains tested) was “highest resistance” and the mortality ([5]; coumaphos alone 0.01%, similar to the control) was 36%. For the same molecule, the mortality (brown dog tick larvae; 0.035% coumaphos used with the synergist atrazine (1%)) was “greater than 60%”, the effect on larvae (brown dog tick larvae; higher concentrations) was “mortality increased” and the effect on larvae (brown dog tick larvae; less than or equal to 0.035%) was “no effect”. For the same molecule, the mortality ([6]; first trial) was 42.6%, the mortality ([6]; repeated trial) was 10.1% and the “resistance of the strain” value [6] was “low resistance”. The “resistance of the strain” value [7] was 5.5 fold and the mortality ([7]; coumaphos alone at 0.05%) was 28.9%.

In the case of `CC(C)Nc1nc(Cl)nc(NC(C)C)n1` [propazine], the “effect on toxicity of chlorpyrifos” value [1] was “neither atrazine nor propazine had any effect”, the “effect on toxicity of coumaphos” value [1] was “reduced the toxicity” and the “effect on toxicity of pirimiphos-methyl” value [1] was “synergized”. The “effect on coumaphos toxicity” value [2] was “substantially as described in Example 1”, the “effect on diazinon toxicity” value [2] was “substantially as described in Example 1” and the “effect on pirimiphos-methyl toxicity” value [2] was “substantially as described in Example 1”. The “effect on toxicity of chlorpyrifos” value [2] was “did synergize”.

In the case of `CC1(C)C(C=C(Cl)Cl)C1C(=O)OCc1cccc(Oc2ccccc2)c1` (stereo not shown) [permethrin], the “resistance of the strain” value [7] was 200 fold.

For `CCOP(=S)(OCC)Oc1cc(C)nc(C(C)C)n1` [diazinon], the “resistance of the strain” value [6] was “very high level of resistance” and the “resistance of the strain” value [7] was 2.6 fold.
